Assay results reported in US12358886B2, “Heterocyclic compounds for use in the treatment of cancer” (Artios Pharma Limited, priority 2019, dated 2025).

target: Polθ protein (amino acids 2-2590) (Homo sapiens, UniProt O75417); test: Polθ full length enzyme potency assay (PicoGreen); conditions: Polθ IC50 (nM), full length N-His, C-term FLAG tagged Polθ, PicoGreen fluorescence, 12 point concentration response
Sequence (O75417 2-2590): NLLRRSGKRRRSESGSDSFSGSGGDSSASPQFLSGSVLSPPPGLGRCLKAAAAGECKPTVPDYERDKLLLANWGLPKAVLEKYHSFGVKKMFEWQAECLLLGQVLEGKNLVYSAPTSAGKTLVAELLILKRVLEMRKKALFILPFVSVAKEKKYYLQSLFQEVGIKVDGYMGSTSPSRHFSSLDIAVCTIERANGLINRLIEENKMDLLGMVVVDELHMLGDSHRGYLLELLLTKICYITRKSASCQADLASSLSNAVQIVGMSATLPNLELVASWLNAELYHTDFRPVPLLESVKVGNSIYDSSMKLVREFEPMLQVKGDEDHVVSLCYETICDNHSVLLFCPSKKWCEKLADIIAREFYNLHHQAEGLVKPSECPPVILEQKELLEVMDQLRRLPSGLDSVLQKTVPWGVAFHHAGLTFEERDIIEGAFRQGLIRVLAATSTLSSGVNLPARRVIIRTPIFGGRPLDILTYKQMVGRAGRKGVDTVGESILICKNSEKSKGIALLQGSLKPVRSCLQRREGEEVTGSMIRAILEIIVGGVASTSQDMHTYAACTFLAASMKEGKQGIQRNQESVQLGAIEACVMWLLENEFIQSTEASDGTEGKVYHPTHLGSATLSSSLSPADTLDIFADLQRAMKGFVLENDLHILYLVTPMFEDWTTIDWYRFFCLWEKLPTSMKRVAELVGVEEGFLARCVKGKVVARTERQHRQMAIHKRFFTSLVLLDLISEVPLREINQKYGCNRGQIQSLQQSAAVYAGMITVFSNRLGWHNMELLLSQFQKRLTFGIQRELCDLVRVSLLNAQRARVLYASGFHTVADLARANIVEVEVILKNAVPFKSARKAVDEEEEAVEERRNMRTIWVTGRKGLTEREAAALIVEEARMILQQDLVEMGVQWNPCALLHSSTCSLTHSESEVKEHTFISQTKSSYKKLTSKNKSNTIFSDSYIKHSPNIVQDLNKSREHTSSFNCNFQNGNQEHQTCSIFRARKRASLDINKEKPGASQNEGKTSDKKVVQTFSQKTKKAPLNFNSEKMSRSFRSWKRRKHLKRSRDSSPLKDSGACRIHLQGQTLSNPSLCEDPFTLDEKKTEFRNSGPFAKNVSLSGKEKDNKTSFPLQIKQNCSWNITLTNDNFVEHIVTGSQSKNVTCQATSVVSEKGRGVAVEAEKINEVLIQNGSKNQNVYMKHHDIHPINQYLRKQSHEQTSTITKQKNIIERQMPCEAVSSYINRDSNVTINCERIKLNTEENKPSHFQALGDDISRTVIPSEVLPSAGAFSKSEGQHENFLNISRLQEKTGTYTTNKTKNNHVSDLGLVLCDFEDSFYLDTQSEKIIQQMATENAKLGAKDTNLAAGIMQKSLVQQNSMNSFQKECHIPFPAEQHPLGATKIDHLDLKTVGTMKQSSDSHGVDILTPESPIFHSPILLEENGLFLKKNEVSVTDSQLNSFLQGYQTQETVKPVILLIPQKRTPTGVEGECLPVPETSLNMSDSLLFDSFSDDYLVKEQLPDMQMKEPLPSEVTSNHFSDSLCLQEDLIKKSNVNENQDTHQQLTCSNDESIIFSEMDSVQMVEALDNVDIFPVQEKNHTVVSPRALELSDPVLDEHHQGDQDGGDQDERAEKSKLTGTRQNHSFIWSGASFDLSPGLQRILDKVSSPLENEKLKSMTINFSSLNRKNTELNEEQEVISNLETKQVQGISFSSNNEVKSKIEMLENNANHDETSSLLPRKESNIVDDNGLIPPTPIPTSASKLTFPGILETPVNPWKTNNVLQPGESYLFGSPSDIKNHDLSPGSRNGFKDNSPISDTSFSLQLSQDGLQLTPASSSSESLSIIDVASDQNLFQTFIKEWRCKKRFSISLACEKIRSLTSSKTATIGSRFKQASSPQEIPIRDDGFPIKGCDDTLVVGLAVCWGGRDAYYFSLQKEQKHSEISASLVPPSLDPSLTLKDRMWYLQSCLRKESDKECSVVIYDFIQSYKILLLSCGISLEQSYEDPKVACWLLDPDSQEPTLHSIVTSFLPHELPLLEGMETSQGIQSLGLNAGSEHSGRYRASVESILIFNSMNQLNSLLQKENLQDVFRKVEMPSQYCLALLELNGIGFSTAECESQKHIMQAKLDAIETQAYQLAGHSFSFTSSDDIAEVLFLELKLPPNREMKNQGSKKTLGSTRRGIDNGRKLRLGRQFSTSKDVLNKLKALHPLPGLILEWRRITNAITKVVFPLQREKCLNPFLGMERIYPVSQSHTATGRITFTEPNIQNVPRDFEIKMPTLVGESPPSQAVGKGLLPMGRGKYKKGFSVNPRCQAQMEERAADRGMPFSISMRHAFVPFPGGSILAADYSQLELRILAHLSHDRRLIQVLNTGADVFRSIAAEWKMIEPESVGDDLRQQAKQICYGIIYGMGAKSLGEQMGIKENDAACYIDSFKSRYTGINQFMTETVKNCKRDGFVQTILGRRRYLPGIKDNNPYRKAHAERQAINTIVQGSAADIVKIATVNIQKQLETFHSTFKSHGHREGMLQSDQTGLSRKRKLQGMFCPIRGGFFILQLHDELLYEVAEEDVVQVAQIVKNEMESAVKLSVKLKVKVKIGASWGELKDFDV
Protocol: Polθ Full Length Enzyme Potency Assay
PicoGreen assay was used to measure the ability of compounds to inhibit the activity of Polθ in vitro. […] DMSO concentration was maintained at 1% by back filling with DMSO solution. […] This was dispensed into each well of the compound plate using a VIAFLO 16 channel manual pipette (Integra) and pre-incubated at rt for 30 min. 3 μL of 2× working solution of dNTPs (40 μM) (dATP, dCTP, dGTP, dTTP; Sigma D6500, D4635, D4010, T0251) diluted in assay buffer was then added and the reaction incubated for 60 min at rt. The reaction was stopped by addition of 10 mM EDTA, 25 mM Tris pH 7.5 and 1:200 dilution of PicoGreen dye (Invitrogen P7581).

IC50 [nM]	SMILES
9	Cc1cc(C(F)(F)F)cc(N2C(=O)OC[C@H]2C(=O)N(C)c2ccc(F)c(C)c2)n1 [Example 86, (S)-N-(4-Fluoro-3-methylphenyl)-N-methyl-3-(6-methyl-4-(trifluoromethyl)pyridin-2-yl)-2-oxooxazolidine-4-carboxamide]
519	Cc1cc(C(F)(F)F)cc(N2C(=O)OC[C@H]2C(=O)N(C)c2cccc(N)n2)n1 [Example 175, (S)—N-(6-Aminopyridin-2-yl)-N-methyl-3-(6-methyl-4-(trifluoromethyl)pyridin-2-yl)-2-oxooxazolidine-4-carboxamide]
6	Cc1cc(C(F)(F)F)cc(N2C(=O)OC[C@H]2C(=O)N(C)c2ccc(Cl)c(C)c2)n1 [Example 84, (S)—N-(4-Chloro-3-methylphenyl)-N-methyl-3-(6-methyl-4-(trifluoromethyl)pyridin-2-yl)-2-oxooxazolidine-4-carboxamide]
36	Cc1cc(C(C)(C)C)cc(N2C(=O)OC[C@H]2C(=O)N(C)c2ccc(F)c(Cl)c2)n1 [Example 123, (S)-3-(4-(tert-Butyl)-6-methylpyridin-2-yl)-N-(3-chloro-4-fluorophenyl)-N-methyl-2-oxooxazolidine-4-carboxamide]
8	Cc1cc(C(F)(F)F)cc(N2C(=O)[C@@H](O)[C@@H](O)[C@H]2C(=O)N(C)c2ccc(F)c(Cl)c2)n1 [Example 65, (2S,3S,4S)—N-(3-Chloro-4-fluorophenyl)-3,4-dihydroxy-N-methyl-1-(6-methyl-4-(trifluoromethyl)pyridin-2-yl)-5-oxopyrrolidine-2-carboxamide]
68	Cc1cc(C(F)(F)F)cc(N2C(=O)OC[C@H]2C(=O)N(C)c2ccc(Cl)cc2Cl)n1 [Example 171, (S)-N-(2,4-Dichlorophenyl)-N-methyl-3-(6-methyl-4-(trifluoromethyl)pyridin-2-yl)-2-oxooxazolidine-4-carboxamide]
61	Cc1cc(C(F)(F)F)cc(N2C(=O)N(CCN(C)C)C[C@H]2C(=O)N(C)c2ccc(F)c(Cl)c2)n1 [Example 182, (S)-N-(3-Chloro-4-fluorophenyl)-1-(2-(dimethylamino)ethyl)-N-methyl-3-(6-methyl-4-(trifluoromethyl)pyridin-2-yl)-2-oxoimidazolidine-4-carboxamide]
6	Cc1cc(C(F)(F)F)cc(N2C(=O)OC[C@H]2C(=O)N(C)c2ccc(C)c(Cl)c2)n1 [Example 88, (S)-N-(3-Chloro-4-methylphenyl)-N-methyl-3-(6-methyl-4-(trifluoromethyl)pyridin-2-yl)-2-oxooxazolidine-4-carboxamide]
21	CN(C(=O)[C@@H]1COC(=O)N1c1cc(C(F)(F)F)cc(Cl)n1)c1ccc(F)c(Cl)c1 [Example 113, (S)-3-(6-Chloro-4-(trifluoromethyl)pyridin-2-yl)-N-(3-chloro-4-fluorophenyl)-N-methyl-2-oxooxazolidine-4-carboxamide]

More lines, now with the values behind:

SMILES	IC50 [nM]
Cc1cc(C(F)(F)F)cc(N2C(=O)NC[C@H]2C(=O)N(C)c2ccc3ccn(C)c3n2)n1 [Example 234, (S)—N-Methyl-N-(1-methyl-1H-pyrrolo[2,3-b]pyridin-6-yl)-3-(6-methyl-4-(trifluoromethyl)pyridin-2-yl)-2-oxoimidazolidine-4-carboxamide]	5
Cc1cc(C(F)(F)F)cc(N2C(=O)[C@@H](COCc3ccccc3)C[C@H]2C(=O)N(C)c2ccc(F)c(Cl)c2)n1 [Example 76, (2S,4R)-4-((Benzyloxy)methyl)-N-(3-chloro-4-fluorophenyl)-N-methyl-1-(6-methyl-4-(trifluoromethyl)pyridin-2-yl)-5-oxopyrrolidine-2-carboxamide]	24
CCN(C(=O)[C@@H]1C[C@H](NC(C)=O)C(=O)N1c1cc(C(F)(F)F)cc(C)n1)c1ccc(F)c(Cl)c1 [Example 62, (2S,4S)-4-Acetamido-N-(3-chloro-4-fluorophenyl)-N-ethyl-1-(6-methyl-4-(trifluoromethyl)pyridin-2-yl)-5-oxopyrrolidine-2-carboxamide]	208
Cc1cccc(N(C)C(=O)[C@@H]2C[C@H](O)CN2c2nc(N(C)C)cc(C(F)(F)F)c2C#N)c1 [Example 32, (2S,4S)-1-(3-Cyano-6-(dimethylamino)-4-(trifluoromethyl)pyridin-2-yl)-4-hydroxy-N-methyl-N-(m-tolyl)pyrrolidine-2-carboxamide]	209
Cc1cc(C)c(C#N)c(N2C[C@@H](O)C[C@H]2C(=O)N(C)c2cccc(Cl)c2)n1 [Example 13, (2S,4S)-N-(3-Chlorophenyl)-1-(3-cyano-4,6-dimethylpyridin-2-yl)-4-hydroxy-N-methylpyrrolidine-2-carboxamide]	180
CCN(C(=O)[C@@H]1C[C@H](N2CCOC[C@H]2CO)CN1c1nc(C)cc(C(F)(F)F)c1C#N)c1ccc(F)c(Cl)c1 [Example 153, (2S,4S)-N-(3-Chloro-4-fluorophenyl)-1-(3-cyano-6-methyl-4-(trifluoromethyl)pyridin-2-yl)-N-ethyl-4-((R)-3-(hydroxymethyl)morpholino)pyrrolidine-2-carboxamide]	104
Cc1cccc(N(C(=O)[C@@H]2CCCN2c2nc(C)cc(C(F)(F)F)c2C#N)C(C)C)c1 [Example 2, (S)-1-(3-Cyano-6-methyl-4-(trifluoromethyl)pyridin-2-yl)-N-isopropyl-N-(m-tolyl)pyrrolidine-2-carboxamide]	9
Cc1cccc(N(C)C(=O)[C@@H]2[C@H](O)[C@H](O)CN2c2nc(C)cc(C)c2C#N)c1 [Example 55, (2S,3S,4R)-1-(3-Cyano-4,6-dimethyl-pyridin-2-yl)-3,4-dihydroxy-N-methyl-N-(m-tolyl)-pyrrolidine-2-carboxamide]	118
Cc1cc(C(F)(F)F)cc(N2C(=O)N(CCOS(N)(=O)=O)C[C@H]2C(=O)N(C)c2ccc(F)c(Cl)c2F)n1 [Example 227, (S)-2-(4-((3-Chloro-2,4-difluorophenyl)(methyl)carbamoyl)-3-(6-methyl-4-(trifluoromethyl)pyridin-2-yl)-2-oxoimidazolidin-1-yll sulfamate]	6
CCN(C(=O)[C@@H]1C[C@H](NC2CNC(=O)C2)CN1c1cc(C(F)(F)F)cc(C)n1)c1ccc(F)c(F)c1 (stereo partly drawn) [Example 137, (2S,4S)-N-(3,4-Difluorophenyl)-N-ethyl-1-(6-methyl-4-(trifluoromethyl)pyridin-2-yl)-4-((5-oxopyrrolidin-3-yl)amino)pyrrolidine-2-carboxamide]	300
Cc1cc(C(F)(F)F)cc(N2C(=O)N(CCS(C)(=N)=O)C[C@H]2C(=O)N(C)c2ccc(F)c(Cl)c2F)n1 (stereo partly drawn) [Example 212, (4S)—N-(3-Chloro-2,4-difluorophenyl)-N-methyl-3-(6-methyl-4-(trifluoromethyl)pyridin-2-yl)-1-(2-(S-methylsulfonimidoyl)ethyl)-2-oxoimidazolidine-4-carboxamide]	6
Cc1cc(C(F)(F)F)cc(N2C(=O)N(CC3CNCCO3)C[C@H]2C(=O)N(C)c2ccc(F)c(Cl)c2F)n1 (stereo partly drawn) [Example 218, (4S)—N-(3-Chloro-2,4-difluorophenyl)-N-methyl-3-(6-methyl-4-(trifluoromethyl)pyridin-2-yl)-1-(morpholin-2-ylmethyl)-2-oxoimidazolidine-4-carboxamide]	16
Cc1cc(C(F)(F)F)cc(N2C(=O)N(CCN3CCC(F)(F)C3)C[C@H]2C(=O)N(C)c2ccc(F)c(Cl)c2F)n1 [Example 206, (S)-N-(3-Chloro-2,4-difluorophenyl)-1-(2-(3,3-difluoropyrrolidin-1-yl)ethyl)-N-methyl-3-(6-methyl-4-(trifluoromethyl)pyridin-2-yl)-2-oxoimidazolidine-4-carboxamide]	15
Cc1cccc(N(C)C(=O)[C@@H]2[C@H](O)CCN2c2nc(C)cc(C(F)(F)F)c2C#N)c1 [Example 24, (2S,3R)-1-(3-Cyano-6-methyl-4-(trifluoromethyl)pyridin-2-yl)-3-hydroxy-N-methyl-N-(m-tolyl)pyrrolidine-2-carboxamide]	9
CCN(C(=O)[C@@H]1C[C@H](N2CCOC(CO)C2)CN1c1cc(C(F)(F)F)cc(C)n1)c1ccc(F)c(F)c1 (stereo partly drawn) [Example 128, (2S,4S)-N-(3,4-Difluorophenyl)-N-ethyl-4-(2-(hydroxymethyl)morpholino)-1-(6-methyl-4-(trifluoromethyl)pyridin-2-yl)pyrrolidine-2-carboxamide]	42
Cc1cc(C(F)(F)F)cc(N2C(=O)N(CCN3CCC3CO)C[C@H]2C(=O)N(C)c2ccc(F)c(Cl)c2F)n1 (stereo partly drawn) [Example 203, (4S)-N-(3-Chloro-2,4-difluoro-phenyl)-1-(2-(2-(hydroxymethyl)-azetidin-1-yl)-ethyl)-N-methyl-3-(6-methyl-4-(trifluoromethyl)pyridin-2-yl)-2-oxoimidazolidine-4-carboxamide]	10
CCN(C(=O)[C@@H]1C[C@H](N2CC(O)C2)CN1c1cc(C(F)(F)F)cc(C)n1)c1ccc(F)c(F)c1 [Example 130, (2S,4S)-N-(3,4-Difluorophenyl)-N-ethyl-4-(3-hydroxyazetidin-1-yl)-1-(6-methyl-4-(trifluoromethyl)pyridin-2-yl)pyrrolidine-2-carboxamide]	100
Cc1cc(C(F)(F)F)cc(N2C(=O)[C@@H](O)[C@@H](O)[C@H]2C(=O)N(C)c2ccc3cc[nH]c3n2)n1 [Example 166, (2S,3S,4S)-3,4-Dihydroxy-N-methyl-1-(6-methyl-4-(trifluoromethyl)pyridin-2-yl)-5-oxo-N-(1H-pyrrolo[2,3-b]pyridin-6-yl)pyrrolidine-2-carboxamide]	7
Cc1cc(C(F)(F)F)cc(N2C(=O)N(CCN3CCC(C#N)CC3)C[C@H]2C(=O)N(C)c2ccc(F)c(Cl)c2F)n1 [Example 211, (S)-N-(3-Chloro-2,4-difluorophenyl)-1-(2-(4-cyanopiperidin-1-yl)ethyl)-N-methyl-3-(6-methyl-4-(trifluoromethyl)pyridin-2-yl)-2-oxoimidazolidine-4-carboxamide]	5
Cc1cc(C(F)(F)F)c(C#N)c(N2[C@@H](C)CC[C@H]2C(=O)N(C)c2ccc(F)c(Cl)c2)n1 [Example 242, (2S,5S)—N-(3-Chloro-4-fluorophenyl)-1-(3-cyano-6-methyl-4-(trifluoromethyl)pyridin-2-yl)-N,5-dimethylpyrrolidine-2-carboxamide]	311
